Converted amounts (≈) assume the structure as drawn.

The values that follow come from DBAASP.

Among the test systems are Escherichia coli BL21AI; Alternaria alternata; Botrytis cinerea; Cladosporium herbarum.
Common to all, as to assay: ≥ marks a high value that may be exact or a test limit, other limits are often not marked, values filed in µg/mL are converted to µM
Assay [1] concerns Bacillus subtilis KCTC 1021.
Assay [2] concerns Escherichia coli KCTC 1682.
For assay [3], the system named is Salmonella typhimurium KCTC 1926.
Assay [4] has as its system Pseudomonas aeruginosa KCTC 2004.
Assay [5] relates to Staphylococcus aureus KCTC 1621.
For assay [6], the system named is Bacillus subtilis KCTC 3068.
Assay [7] has as its system Escherichia coli KCTC 2571.
Assay [8] relates to Pseudomonas aeruginosa KCTC 2513.
The test system of assay [9] is Staphylococcus epidermidis KCTC 1917.
Assay [10] relates to Pseudomonas aeruginosa KCTC 1637.
Assay [11] has as its system Bacillus subtilis KCTC 1022.
Assay [12] relates to Staphylococcus aureus KCTC 1916.
Assay [13] has as its system Escherichia coli KCTC 2593.
Assay [14] concerns Staphylococcus aureus KCTC 3881.
Assay [15] deals with Enterococcus faecalis 981.
Assay [16] has as its system Nocardia asteroides 201118.
The subject of assay [17] is Staphylococcus aureus ATCC 25923.
Assay [18] relates to Micrococcus luteus ATCC 10240.
For assay [19], the system named is Neisseria gonorrhoeae FA19.
In assay [20] the test system is Neisseria gonorrhoeae F62.
Assay [21] relates to Pseudomonas corrugata DSM 7228.
The test system of assay [22] is Xanthomonas vesicatoria DSM 50861.
Assay [23] deals with Staphylococcus aureus 90857.
Assay [24] relates to Pseudomonas syringae pv. tomato DC3000.
Assay [25] concerns Pseudomonas syringae pv. syringae DSM 10604.
In assay [26] the test system is Pectobacterium carotovorum subsp. carotovorum DSM 30168.
Assay [27] relates to Clavibacter michiganensis subsp. michiganensis DSM 46294.

In general, MIC refers to the lowest concentration found to suppress growth. Read a high MIC as weaker potency. With `CC[C@H](C)[C@H](NC(=O)CNC(=O)[C@H](CCCN=C(N)N)NC(=O)[C@H](Cc1c[nH]c2ccccc12)NC(=O)[C@@H](NC(=O)[C@H](Cc1cnc[nH]1)NC(=O)[C@H](Cc1cnc[nH]1)NC(=O)[C@H](Cc1ccccc1)NC(=O)[C@@H](N)Cc1ccccc1)[C@@H](C)CC)C(=O)N[C@H](C(=O)N[C@@H](Cc1cnc[nH]1)C(=O)N[C@H](C(=O)NCC(=O)N[C@@H](CCCCN)C(=O)N[C@H](C(=O)N[C@H](C(=O)N[C@@H](Cc1cnc[nH]1)C(=O)N[C@@H](CCCN=C(N)N)C(=O)N[C@@H](CC(C)C)C(=O)N[C@H](C(=O)N[C@H](C(=O)NCC(=O)O)[C@@H](C)O)C(C)C)[C@@H](C)CC)[C@@H](C)O)C(C)C)C(C)C` [FFHHIWRGIVHVGKTIHRLVTG], the MIC in assay [1] was found to be 4 µM (≈ 10.4 µg/mL); in assay [2], 2 µM (≈ 5.22 µg/mL); in [3] it was 4 µM (≈ 10.4 µg/mL); in assay [4], 4 µM (≈ 10.4 µg/mL); in [5], 2 µM (≈ 5.22 µg/mL); in assay [6], 4 µM (≈ 10.4 µg/mL). The MIC in [7] is 2 µM (≈ 5.22 µg/mL); in assay [8], 4 µM (≈ 10.4 µg/mL); in assay [9], 2 µM (≈ 5.22 µg/mL); in assay [10], 4 µM (≈ 10.4 µg/mL); in assay [11] it was 4 µM (≈ 10.4 µg/mL); in [12] it was 2 µM (≈ 5.22 µg/mL). Also, the MIC in assay [13] and in [14] was 2 µM (≈ 5.22 µg/mL) throughout.
Regarding `CC[C@H](C)[C@H](NC(=O)[C@H](CCCCN)NC(=O)[C@@H]1CCCN1C(=O)[C@H](CC(C)C)NC(=O)[C@H](CC(C)C)NC(=O)[C@@H](NC(=O)[C@H](CO)NC(=O)[C@H](CC(C)C)NC(=O)[C@H](C)NC(=O)CNC(=O)[C@H](Cc1ccccc1)NC(=O)[C@H](CC(C)C)NC(=O)[C@H](CC(C)C)NC(=O)[C@@H]1CCCN1C(=O)[C@H](CC(C)C)NC(=O)[C@@H](N)Cc1ccccc1)[C@@H](C)O)C(=O)N[C@@H](Cc1ccccc1)C(N)=O` [FLPLLFGALSTLLPKIF], the MIC was no less than 50 µM in assay [15], 12.5 µM (≈ 23.6 µg/mL) in [16] and 25 µM (≈ 47.2 µg/mL) in [17].
On to `CC[C@H](C)[C@H](NC(=O)CNC(=O)[C@H](CCCN=C(N)N)NC(=O)[C@H](Cc1ccccc1)NC(=O)[C@@H](NC(=O)[C@H](Cc1cnc[nH]1)NC(=O)[C@H](Cc1cnc[nH]1)NC(=O)[C@H](Cc1c[nH]c2ccccc12)NC(=O)[C@@H](N)Cc1ccccc1)[C@@H](C)CC)C(=O)N[C@H](C(=O)N[C@@H](Cc1cnc[nH]1)C(=O)N[C@H](C(=O)NCC(=O)N[C@@H](CCCCN)C(=O)N[C@H](C(=O)N[C@H](C(=O)N[C@@H](Cc1cnc[nH]1)C(=O)N[C@@H](CCCN=C(N)N)C(=O)N[C@@H](CC(C)C)C(=O)N[C@H](C(=O)N[C@H](C(=O)NCC(=O)O)[C@@H](C)O)C(C)C)[C@@H](C)CC)[C@@H](C)O)C(C)C)C(C)C` [FWHHIFRGIVHVGKTIHRLVTG], for which the MIC in [1] amounted to 2 µM (≈ 5.22 µg/mL); in assay [2], 2 µM (≈ 5.22 µg/mL); in assay [3] it was 2 µM (≈ 5.22 µg/mL); in [4], 4 µM (≈ 10.4 µg/mL); in assay [5], 2 µM (≈ 5.22 µg/mL); in assay [6], 2 µM (≈ 5.22 µg/mL). The MIC in [7] came to 2 µM (≈ 5.22 µg/mL); in assay [8], 4 µM (≈ 10.4 µg/mL); in [9], 2 µM (≈ 5.22 µg/mL); in [10] it was 4 µM (≈ 10.4 µg/mL); in assay [11] it was 2 µM (≈ 5.22 µg/mL); in assay [12] it was 2 µM (≈ 5.22 µg/mL). In addition, the MIC in assay [13] and in [14] was 2 µM (≈ 5.22 µg/mL) each time.
As for `CC[C@H](C)[C@H](NC(=O)[C@H](Cc1ccc(O)cc1)NC(=O)[C@@H](NC(=O)[C@@H]1CCCN1C(=O)[C@H](CCCN=C(N)N)NC(=O)[C@H](CC(N)=O)NC(=O)[C@H](CC(N)=O)NC(=O)CN)C(C)C)C(=O)N1CCC[C@H]1C(=O)N[C@@H](CCCN=C(N)N)C(=O)N1CCC[C@H]1C(=O)N[C@@H](CCCN=C(N)N)C(=O)N1CCC[C@H]1C(=O)N1CCC[C@H]1C(=O)N[C@@H](Cc1cnc[nH]1)C(=O)N1CCC[C@H]1C(=O)N[C@@H](CCCN=C(N)N)C(=O)N[C@@H](CC(C)C)C(=O)N[C@H](C(=O)O)C(C)C` [GNNRPVYIPRPRPPHPRLV], the MIC in [18] is 0.107 µM (≈ 0.24 µg/mL); in the assay on Escherichia coli BL21AI it was 3.49 µM (≈ 7.81 µg/mL).
Take `CC(C)C[C@H](N)C(=O)N[C@H]1CSSC[C@@H](C(=O)N[C@H](C(N)=O)C(C)C)NC(=O)[C@H](C(C)C)NC(=O)[C@H](C)NC(=O)[C@H](Cc2ccccc2)NC(=O)[C@H](CCCN=C(N)N)NC(=O)[C@H](CCCN=C(N)N)NC(=O)[C@H](CCCN=C(N)N)NC(=O)[C@H](C)NC(=O)[C@H](Cc2ccc(O)cc2)NC1=O` [LCYARRRFAVCV]: the MIC in assay [19] was 7.65 µM (≈ 11.1 µg/mL); in assay [20], 1.1 µM (≈ 1.6 µg/mL).
Consider `CC(C)C[C@H](NC(=O)[C@H](CCCNC(=N)N)NC(=O)CNC(=O)CNC(=O)[C@@H](N)CCCNC(=N)N)C(=O)N[C@@H](C)C(=O)N[C@@H](Cc1ccc(O)cc1)C(=O)N[C@@H](C)C(=O)N[C@@H](CCCNC(=N)N)C(=O)N[C@@H](CCCNC(=N)N)C(=O)N[C@@H](CCCNC(=N)N)C(=O)N[C@@H](Cc1ccccc1)C(=O)N[C@@H](C)C(=O)N[C@H](C(=O)N[C@@H](C)C(=O)N[C@H](C(=O)NCC(=O)N[C@@H](CCCNC(=N)N)C(N)=O)C(C)C)C(C)C` [RGGRLAYARRRFAVAVGR], for which the values for the MIC in [19] and in assay [20] were no less than 224 µM and 10 µM (≈ 20.3 µg/mL), respectively.
Take `CC(C)C[C@H](NC(=O)[C@H](CCCCN)NC(=O)[C@H](CC(C)C)NC(=O)[C@H](CCCN=C(N)N)NC(=O)[C@H](CCCCN)NC(=O)[C@H](CCCCN)NC(=O)[C@@H](N)CCCN=C(N)N)C(=O)N[C@@H](CC(C)C)C(=O)N[C@@H](CCCCN)C(=O)N[C@@H](CCCN=C(N)N)C(=O)N[C@@H](CC(C)C)C(=O)N[C@H](C(N)=O)C(C)C` [RKKRLKLLKRLV]: the MIC was 1.29 µM (≈ 2 µg/mL) in assay [21]; 1.29 µM (≈ 2 µg/mL) in assay [22]; 25 µM (≈ 38.8 µg/mL) in assay [23]; no less than 64.5 µM in the assay on Alternaria alternata; no less than 64.5 µM with Botrytis cinerea; 6.45 µM (≈ 9.99 µg/mL) against Cladosporium herbarum. The MIC in [24] amounted to 0.645 µM (≈ 0.999 µg/mL); in [25] it was 1.29 µM (≈ 2 µg/mL); in [26] it was 25.8 µM (≈ 40 µg/mL); in [27], 0.645 µM (≈ 0.999 µg/mL).
Consider `CC[C@H](C)[C@H](NC(=O)[C@H](CCCN=C(N)N)NC(=O)[C@H](CCCN=C(N)N)NC(=O)[C@@H]1CCCN1C(=O)[C@@H]1CCCN1C(=O)[C@H](CCCN=C(N)N)NC(=O)[C@@H]1CCCN1C(=O)[C@H](CCCN=C(N)N)NC(=O)[C@@H]1CCCN1C(=O)[C@H](CC(C)C)NC(=O)[C@H](Cc1ccc(O)cc1)NC(=O)[C@@H]1CCCN1C(=O)[C@@H]1CCCN1C(=O)[C@H](CCCCN)NC(=O)[C@H](CC(=O)O)NC(=O)[C@@H](N)C(C)C)C(=O)N[C@@H](Cc1ccc(O)cc1)C(=O)N[C@@H](CC(N)=O)C(=O)N[C@@H](CC(N)=O)C(N)=O` [VDKPPYLPRPRPPRRIYNN], for which the MIC worked out at 27.2 µM (≈ 64 µg/mL) in assay [18] and 6.81 µM (≈ 16 µg/mL) against Escherichia coli BL21AI.
